# Data published in US20250145665A1, “MACROCYCLIC PEPTIDES USEFUL AS MODULATORS OF TNF ALPHA” (Bristol-Myers Squibb Company, priority 2023, published 2025).
# Read-outs that look alike come from different tables or passages of the source. Starred links: 1 amine or outer side, 2 acyl side, 3 side chain; linkers in the order of their positions; H or OH if unused. Positions of bridges follow the written chain, without caps; N, C: chain ends. Non-standard residues stand in square brackets, D forms with d. Residues, ends and D or L forms follow the SMILES beside them. *: point of attachment. X56 = O=C(O)COc1cccc(NC(=O)c2ccc(-c3ccc(C[C@H](N[*:1])C(=O)[*:2])cc3)cc2)c1; Bip(4'-NH) = O=C([C@H](Cc1ccc(-c2ccc(N[*:3])cc2)cc1)N[*:1])[*:2]; dArg(ω-Bn(3-CH2OH)) = N=C(NCCC[C@@H](N)C(=O)O)NCc1cccc(CO)c1; Indazole3carbonyl(1-CH2COOH) = O=C(O)Cn1nc(C(=O)*)c2ccccc21; Bip(4'-COOH) = N[C@@H](Cc1ccc(-c2ccc(C(=O)O)cc2)cc1)C(=O)O; X33 = N=C(NCCC[C@@H](N[*:1])C(=O)[*:2])NCc1cccc(CC(=O)O)c1; Phe(4-(3-Py)) = N[C@@H](Cc1ccc(-c2cccnc2)cc1)C(=O)O; Ala(imidazol-2-yl) = N[C@@H](Cc1ncc[nH]1)C(=O)O; dArg(ω-Bn) = N=C(NCCC[C@@H](N)C(=O)O)NCc1ccccc1; Ala(morpholin-4-yl) = N[C@@H](CN1CCOCC1)C(=O)O; Benzoyl(3-OCH2COOH) = O=C(O)COc1cccc(C(=O)*)c1; Benzoyl(4-OCH2COOH) = O=C(O)COc1ccc(C(=O)*)cc1; Phe(3-CONH2) = NC(=O)c1cccc(C[C@H](N)C(=O)O)c1; Bip = N[C@@H](Cc1ccc(-c2ccccc2)cc1)C(=O)O; Tiq1c(1S) = O=C(O)[C@H]1NCCc2ccccc21; hhPhe = N[C@@H](CCCc1ccccc1)C(=O)O; 2Pal = N[C@@H](Cc1ccccn1)C(=O)O; Cha = N[C@@H](CC1CCCCC1)C(=O)O; Sar = CNCC(=O)O
# Molecular target: TNFα (Homo sapiens, UniProt P01375)
# Test: TNF-Induced HEK-Blue Assay
# Type: cell-based
# [1] = HEK-Blue-CD40L cells, NF-kB-driven secreted alkaline phosphatase reporter, TNFα 0.5 ng/ml, 18 h, read-out: TNF induced HEK-Blue assay IC50 value
# TNFα, sequence (P01375 77-233 limits assumed): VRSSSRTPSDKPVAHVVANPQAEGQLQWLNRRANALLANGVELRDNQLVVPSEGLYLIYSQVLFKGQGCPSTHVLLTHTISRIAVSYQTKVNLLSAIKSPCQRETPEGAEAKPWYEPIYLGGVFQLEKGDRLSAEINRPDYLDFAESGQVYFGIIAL
SMILES,IC50 [1] [nM],IC50 [nM]
CC[C@H](C)[C@@H]1NC(=O)[C@@H](CCCNC(=N)N)NC(=O)[C@H](CC(=O)O)NC(=O)[C@H](Cc2cnc[nH]2)NC(=O)CN(C)C(=O)[C@H](Cc2ccc(-c3ccc(C(=O)Nc4cccc(OCC(=O)O)c4)cc3)cc2)NC(=O)[C@H](Cc2ccc(-c3ccc(C(=O)O)cc3)cc2)NC(=O)[C@H](Cc2cccc(C(N)=O)c2)NC(=O)CSC[C@@H](C(=O)NCC(N)=O)NC(=O)[C@H](CC(C)C)NC(=O)[C@H](Cc2cnc[nH]2)NC(=O)[C@H](C(C)C)NC(=O)[C@@H]2CCCN2C1=O [Example 632] ({CH2CO}-[Phe(3-CONH2)][Bip(4'-COOH)][X56][Sar]HD[dR]IPVHLCG-NH2; thioether N-13),50 to 200,
CC(C)C[C@@H]1NC(=O)[C@H](CCCNC(=N)N)NC(=O)[C@H](C(C)C)NC(=O)[C@@H]2CCCN2C(=O)[C@H](C(C)C)NC(=O)[C@@H](CCCNC(=N)NCc2cccc(CC(=O)O)c2)NC(=O)[C@H](CC(=O)O)NC(=O)[C@@H]2CCCN2C(=O)CN(C)C(=O)[C@H](Cc2ccc(-c3ccc(NC(=O)c4nn(CC(=O)O)c5ccccc45)cc3)cc2)NC(=O)[C@H](Cc2ccc(-c3ccccc3)cc2)NC(=O)[C@H](CN2CCOCC2)NC(=O)CSC[C@@H](C(=O)NCC(N)=O)NC1=O [Example 511] ({CH2CO}-[Ala(morpholin-4-yl)][Bip][Bip(4'-NH)](Indazole3carbonyl(1-CH2COOH))[Sar]PD[X33]VPVRLCG-NH2; thioether N-13),,50 to 200
CC(C)C[C@@H]1NC(=O)[C@H](CCCNC(=N)N)NC(=O)[C@H](C(C)C)NC(=O)[C@@H]2CCCN2C(=O)[C@H](C(C)C)NC(=O)[C@H](CCCNC(=N)N)NC(=O)[C@H](CC(=O)O)NC(=O)[C@@H]2CCCN2C(=O)CN(C)C(=O)[C@H](Cc2ccc(-c3ccccc3)cc2)NC(=O)[C@H](Cc2ccc(-c3ccccc3)cc2)NC(=O)[C@H](CCCc2ccccc2)NC(=O)CSC[C@@H](C(=O)NCC(N)=O)NC1=O [Example 12] ({CH2CO}-[hhPhe][Bip][Bip][Sar]PDRVPVRLCG-NH2; thioether N-13),200 to 2000,
CC[C@H](C)[C@@H]1NC(=O)[C@@H](CCCNC(=N)N)NC(=O)[C@H](CC(=O)O)NC(=O)[C@H](Cc2cnc[nH]2)NC(=O)CN(C)C(=O)[C@H](Cc2ccc(-c3ccc(NC(=O)c4cccc(OCC(=O)O)c4)cc3)cc2)NC(=O)[C@H](Cc2ccc(-c3ccccc3)cc2)NC(=O)[C@H](CC2CCCCC2)NC(=O)CSC[C@@H](C(=O)NCC(N)=O)NC(=O)[C@H](CC(C)C)NC(=O)[C@H](Cc2c[nH]cn2)NC(=O)[C@H](C(C)C)NC(=O)[C@@H]2c3ccccc3CCN2C1=O [Example 516] ({CH2CO}-[Cha][Bip][Bip(4'-NH)](Benzoyl(3-OCH2COOH))[Sar]HD[dR]I[Tiq1c(1S)]VHLCG-NH2; thioether N-13),< 50,
CC(C)[C@@H]1NC(=O)[C@H](CCCNC(=N)N)NC(=O)[C@H](C(C)C)NC(=O)[C@@H]2CCCN2C(=O)[C@H](C(C)C)NC(=O)[C@H](CCCNC(=N)N)NC(=O)[C@H](CC(=O)O)NC(=O)[C@@H]2CCCN2C(=O)CN(C)C(=O)[C@H](Cc2ccc(-c3cccnc3)cc2)NC(=O)[C@H](Cc2ccc(-c3ccccc3)cc2)NC(=O)[C@H](CN2CCOCC2)NC(=O)CSC[C@@H](C(=O)NCC(N)=O)NC1=O [Example 92] ({CH2CO}-[Ala(morpholin-4-yl)][Bip][Phe(4-(3-Py))][Sar]PDRVPVRVCG-NH2; thioether N-13),200 to 2000,

# Second part, led by results:
IC50 [1] [nM],SMILES,IC50 [nM]
50 to 200,CC(C)C[C@@H]1NC(=O)[C@H](CCCNC(=N)N)NC(=O)[C@H](C(C)C)NC(=O)[C@@H]2CCCN2C(=O)[C@H](C(C)C)NC(=O)[C@H](CCCNC(=N)N)NC(=O)[C@H](CC(=O)O)NC(=O)[C@@H]2CCCN2C(=O)CN(C)C(=O)[C@H](Cc2ccc(-c3ccccc3)cc2)NC(=O)[C@H](Cc2ccc(-c3ccc(C(=O)O)cc3)cc2)NC(=O)[C@H](CN2CCOCC2)NC(=O)CSC[C@@H](C(=O)NCC(N)=O)NC1=O [Example 120] ({CH2CO}-[Ala(morpholin-4-yl)][Bip(4'-COOH)][Bip][Sar]PDRVPVRLCG-NH2; thioether N-13),
< 50,CC(C)C[C@@H]1NC(=O)[C@H](CCCNC(=N)N)NC(=O)[C@H](C(C)C)NC(=O)[C@@H]2CCCN2C(=O)[C@H](C(C)C)NC(=O)[C@@H](CCCNC(=N)NCc2cccc(CO)c2)NC(=O)[C@H](CC(=O)O)NC(=O)[C@@H]2CCCN2C(=O)CN(C)C(=O)[C@H](Cc2ccc(-c3ccc(NC(=O)c4ccc(OCC(=O)O)cc4)cc3)cc2)NC(=O)[C@H](Cc2ccc(-c3ccccc3)cc2)NC(=O)[C@H](CN2CCOCC2)NC(=O)CSC[C@@H](C(=O)NCC(N)=O)NC1=O [Example 500] ({CH2CO}-[Ala(morpholin-4-yl)][Bip][Bip(4'-NH)](Benzoyl(4-OCH2COOH))[Sar]PD[dArg(ω-Bn(3-CH2OH))]VPVRLCG-NH2; thioether N-13),
50 to 200,CC(C)C[C@@H]1NC(=O)[C@H](Cc2ncc[nH]2)NC(=O)[C@H](C(C)C)NC(=O)[C@@H]2CCCN2C(=O)[C@H](C(C)C)NC(=O)[C@@H](CCCNC(=N)NCc2ccccc2)NC(=O)[C@H](CC(=O)O)NC(=O)[C@H](Cc2ccccn2)NC(=O)CN(C)C(=O)[C@H](Cc2ccc(-c3ccc(NC(=O)c4cccc(OCC(=O)O)c4)cc3)cc2)NC(=O)[C@H](Cc2ccc(-c3ccccc3)cc2)NC(=O)[C@H](CN2CCOCC2)NC(=O)CSC[C@@H](C(=O)NCC(N)=O)NC1=O [Example 641] ({CH2CO}-[Ala(morpholin-4-yl)][Bip][Bip(4'-NH)](Benzoyl(3-OCH2COOH))[Sar][2Pal]D[dArg(ω-Bn)]VPV[Ala(imidazol-2-yl)]LCG-NH2; thioether N-13),
